Results as given in patent US20060078502A1, “Charge neutral complexes of paramagnetic metals as intracellular magnetic resonance imaging contrast agents” (priority 2004, published 2006).

Experiments:
C3H mouse = assay: MRI processing and imaging of a mouse after intravenous administration; type: in vivo
From the text: A Bruker 7.0 Tesla MRI System (BioSpin MRI Gmbh, Avance) operated at 300 MHz was used in this study. The system parameters are optimized for high resolution imaging with either T1-weighted (Gd-complexes) or T2-weighted agents (Fe-complexes). The mouse was placed on a stereotactic holder with a prone position. The holder stayed in the center of the 32 mm bore of the transmitter-receiver RF coil. The tail-vein was cannulated with a 27-29 G needle for delivery of contrast agents via slow infusion. 0.2 ml of 6 μM of the gadolium pyrithione complex was administered per dose. Two doses were administered 27 minutes apart. After acquisition of scout images, T1-weighted data were acquired with a spoiled gradient echo sequence, T1=100 to 700 ms, for example, 200 ms, TR (repetition time)=10 to 500 ms, for example, 13 ms, TE (echo time)=5 to 10 ms, for example, 6 ms, and flip angle=60-90 degree. Data were acquired before and after injection of contrast media to evaluate the reduction of tissue T1-values from 500-700 ms to 100-200 ms with the Gd-complexes or Gd-tagged cells.
FIG. 1 presents a T1-weighted MR image (coronal slice, 1 mm thickness) of the C3H mouse at 3 minutes after the second intravenous administration of Gd-(tris)pyrithione complex, providing an image at 3 and 30 minutes post administration. […] The conclusion that the complex is stable is reached because, unstable Gd-complexes hydrolyze and Gd-colloids form and localize in the macrophage pool of reticuloendothelial system of liver, spleen and bone marrow.

human neutrophils = assay: Kinetics of complex loading into cells; type: cell-based; conditions: 37° C., neutrophils in donor plasma, 3.7 mg gadolinium
Experimental: Kinetics of Complex Loading into Cells. For this study, human neutrophils were obtained from a single donor and suspended in 50 microliters of the same donor's plasma in a series of test tubes. The neutrophils were incubated at 37° C. with gadolinium pyrithione complex in a shaker bath. The amount of gadolinium pyrithione used for each test tube provided 3.7 mg of gadolinium, which was added to the test tube in 250 microliters of acetate buffer. After various incubation times, the neutrophil cells were centrifuged, washed with buffer and the amount of neutrophil-bound gadolinium was calculated.

[1] = Solubility of the complex; type: physicochemical; conditions: 0.2 molar acetate buffer; mixture of acetate buffer and saline or human plasma
From the text: A paramagnetic metal atom has one or more unpaired […], providing a half-integral “spin” quantum number. For metal complex MRI contrast agents, the MRI relaxation efficiency per molecule depends on the nature of the metal in the chelate complex and the size of the metal chelate complex. These contrast agents serve as relaxation sinks for the protons of adjacent water molecules. The metal complex lattice receives the energy from the protons excited by radiofrequency (RF) pulses. […] This facilitates energy transfer, and provides increased imaging efficiency. The complexes of the present invention are soluble in lipids and provide relaxivities in the range 50-150 millimole^−1 second^−1. The gadolinium complexes of this invention, for instance, provide T1 relaxivity values of 80 per millimole per second and T2 values of 93 millimole^−1 second^−1. The complexes of the present invention are thus particularly useful as intra-cellular MRI contrast agents.
(§1) This formulation is found to be stable after one year of storage in the refrigerator. It is soluble in 0.2 molar acetate buffer, in a mixture of acetate buffer and saline or human plasma facilitating the storage of Gd-complex, its transport and control of reconstitution by adjustment of injectate volume, and its use in cell-tagging and administration of tagged cells.

[2] = system: plasma lipoproteins (VLDL, LDL and HDL); assay: Kinetics of gadolinium complex binding to plasma lipoproteins; type: in vitro ADME; conditions: Gd-153 labeled, 60 minutes at room temperature, density gradient separation
Experimental: For this study, the galadolinium pyrithione complex labeled with Gd-153 was incubated directly with isolated lipoprotein particles in acetate-citrate buffer or was incubated with intact plasma for 60 minutes at room temperature. Very low, low and high-density lipoproteins (VLDL, LDL and HDL) were separated by cesium chloride density gradients (1.06 and 1.25 g/ml) in an ultracentrifuge (Beckman L8-55) in a swinging bucket rotor using standard protocols. The mixture in 4.5 ml in polyallomer tubes was spun at 210,000 g for 20 hours. The plasma proteins in the […], and layers representing each of VLDL, LDL and HDL were removed from the top of the tube by suction. The amount of gadolinium pyrithione bound to VLDL, LDL, HDL and plasma proteins was measured by counting the radioactivity in each fraction with the gamma well counter. The majority of gadolinium complexes were bound to lipoproteins. Accordingly, the gadolinium-tagged lipoprotein particles are useful to localize the sites of vulnerable plaques in patients, thus identifying the rupture-prone vulnerable plaques in the coronary or carotid arteries with MRI.

[3] = Storage stability of the complex (solution formulation, lyophilized); type: physicochemical; conditions: after one year of storage in the refrigerator; acetate-dextrose buffer, pH 6.4
Experimental: The contrast agent of the invention can be packaged into kit form. Conveniently, the complexes are formed as described herein, sterilized, filled into sterile bottles and then freeze-dried (lyophilized). The lyophilized complex is stable when stored for at least one year at 4° C. The lyophilized complex is reconstituted in acetate buffer (about 0.2 M NaOAc, pH 6.0 to 6.4) to the desired concentration for injection for use.
Fifty microliters of the gadolinium chloride solution is mixed with 250-400 microliters of the pyrithione solution. A white precipitate of gadolinium pyrithione complex is formed, which is vortexed for good mixing. The gadolinium pyrithione complex is dissolved in 1250 microliters of 0.2 molar acetate-dextrose buffer. The final pH is adjusted to 6.4 with a pH electrode (Beckman-Coulter). The osmolarity of the solution is checked by the freezing point method to 275 mOsmole. The gadolinium pyrithione complex solution is sterilized by membrane filtration (0.22 micrometer filter) and stored in a refrigerator.
as §1

[Gd+3].[O-][n+]1ccccc1[S-].[O-][n+]1ccccc1[S-].[O-][n+]1ccccc1[S-] [gadolinium pyrithione complex, gadolinium (tris)pyrithione]
imaging of liver, spleen and bone marrow (reticuloendothelial system) (C3H mouse; 3 and 30 minutes post administration): None of these tissues were imaged | in vivo stability of the agent (C3H mouse; C3H mouse, intravenous, two doses 27 minutes apart, T1-weighted MRI): stable | localization in late phase (C3H mouse; thirty minutes after the first administration): bladder | localization in early phase post-IV injection (C3H mouse; three minutes after the second administration): heart | Gadolinium (% in cells) (human neutrophils; incubation time 05 minutes): 99.21% | Gadolinium (% in cells) (human neutrophils; incubation time 10 minutes): 99.75% | Gadolinium (% in cells) (human neutrophils; incubation time 30 minutes): 99.36% | Gadolinium (% in cells) (human neutrophils; incubation time 45 minutes): 99.11% | solubility [1]: soluble | fraction of complex bound to lipoproteins [2]: majority | stability of formulation on storage [3]: stable
